Measured values from patent US8247211B2, “Glycopeptide antibiotics” (American Cyanamid Company, priority 2001, dated 2012).
Values after ≈ are worked out from the molar mass of the structure shown.

Tests used:
Assay in all cases: In vitro antibacterial evaluation: minimum inhibitory concentration (MIC), broth dilution method
Type in all cases: cell-based
Enterococcus sp. = conditions: 18 hours at 35° C.
In short: (§1)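 NCCLS M7-A2 broth dilution with Mueller-Hinton II, testing 64-0.06 μg/mL antibiotic against 5×10^5 CFU/mL inocula. Test strains include recent methicillin-, penicillin- or vancomycin-resistant clinical isolates. MIC is the lowest concentration preventing growth.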

Streptococcus sp. = conditions: 18 hours at 35° C.
In short: as §1

Escherichia coli = Escherichia coli (GC 4560); 18 hours at 35° C.
In short: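 NCCLS M7-A2 broth dilution; Muller-Hinton II […]; 5×10^5 CFU/mL; 64-0.06 μg/mL. MIC = lowest concentration with no growth.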

Staphylococcus sp. = test system: Staphylococcus sp.
In short: as §1

[1] = broth dilution, inoculum 5×10^5 CFU/mL

MIC Enterococcus avium (GC 4558) (Enterococcus sp.; Enterococcus avium (GC 4558)): 16 µg/mL (≈ 11.5 µM) | MIC Enterococcus faecalis (ATCC 29212) (Enterococcus sp.; Enterococcus faecalis (ATCC 29212)): 16 µg/mL (≈ 11.5 µM) | MIC Enterococcus faecalis (GC 2242) (Enterococcus sp.; Enterococcus faecalis (GC 2242)): 16 µg/mL (≈ 11.5 µM) | MIC Enterococcus faecalis (GC 2691) (Enterococcus sp.; Enterococcus faecalis (GC 2691)): 16 µg/mL (≈ 11.5 µM) | MIC Enterococcus faecalis (GC 3059) (Enterococcus sp.; Enterococcus faecalis (GC 3059)): 16 µg/mL (≈ 11.5 µM) | MIC Enterococcus faecalis (GC 4552) (Enterococcus sp.; Enterococcus faecalis (GC 4552)): 16 µg/mL (≈ 11.5 µM) | MIC Enterococcus faecalis (GC 4553) (Enterococcus sp.; Enterococcus faecalis (GC 4553)): 16 µg/mL (≈ 11.5 µM) | MIC Enterococcus faecalis (GC 4554) (Enterococcus sp.; Enterococcus faecalis (GC 4554)): 16 µg/mL (≈ 11.5 µM) | MIC Enterococcus faecalis (GC 6189) (Enterococcus sp.; Enterococcus faecalis (GC 6189)): 16 µg/mL (≈ 11.5 µM) | MIC Enterococcus faecium (GC 2243) (Enterococcus sp.; Enterococcus faecium (GC 2243)): 16 µg/mL (≈ 11.5 µM) | MIC Enterococcus faecium (GC 4556) (Enterococcus sp.; Enterococcus faecium (GC 4556)): 16 µg/mL (≈ 11.5 µM) | MIC Enterococcus faecium (GC 4557) (Enterococcus sp.; Enterococcus faecium (GC 4557)): 8 µg/mL (≈ 5.76 µM) | MIC Enterococcus avium (GC 4558) (Enterococcus sp.; [1]): 16 µg/mL (≈ 11.5 µM) | MIC Enterococcus faecalis (ATCC 29212) (Enterococcus sp.; [1]): 16 µg/mL (≈ 11.5 µM) | MIC Enterococcus faecalis (GC 2242) (Enterococcus sp.; [1]): 16 µg/mL (≈ 11.5 µM) | MIC Enterococcus faecalis (GC 2691) (Enterococcus sp.; [1]): 16 µg/mL (≈ 11.5 µM) | MIC Enterococcus faecalis (GC 3059) (Enterococcus sp.; [1]): 16 µg/mL (≈ 11.5 µM) | MIC Enterococcus faecalis (GC 4552) (Enterococcus sp.; [1]): 16 µg/mL (≈ 11.5 µM) | MIC Enterococcus faecalis (GC 4553) (Enterococcus sp.; [1]): 16 µg/mL (≈ 11.5 µM) | MIC Enterococcus faecalis (GC 4554) (Enterococcus sp.; [1]): 16 µg/mL (≈ 11.5 µM) | MIC Enterococcus faecalis (GC 6189) (Enterococcus sp.; [1]): 16 µg/mL (≈ 11.5 µM) | MIC Enterococcus faecium (GC 2243) (Enterococcus sp.; [1]): 16 µg/mL (≈ 11.5 µM) | MIC Enterococcus faecium (GC 4556) (Enterococcus sp.; [1]): 16 µg/mL (≈ 11.5 µM) | MIC Enterococcus faecium (GC 4557) (Enterococcus sp.; [1]): 8 µg/mL (≈ 5.76 µM) | MIC Streptococcus agalactiae (GC 4564) (Streptococcus sp.; Streptococcus agalactiae (GC 4564)): 1 µg/mL (≈ 0.72 µM) | MIC Streptococcus pneumoniae (ATCC 6301) (Streptococcus sp.; Streptococcus pneumoniae (ATCC 6301)): 0.5 µg/mL (≈ 0.36 µM) | MIC Streptococcus pneumoniae (GC 1894) (Streptococcus sp.; Streptococcus pneumoniae (GC 1894)): 0.25 µg/mL (≈ 0.18 µM) | MIC Streptococcus pneumoniae (GC 4565) (Streptococcus sp.; Streptococcus pneumoniae (GC 4565)): 0.5 µg/mL (≈ 0.36 µM) | MIC Streptococcus pyogenes (GC 4563) (Streptococcus sp.; Streptococcus pyogenes (GC 4563)): 0.5 µg/mL (≈ 0.36 µM) | MIC Streptococcus agalactiae (GC 4564) (Streptococcus sp.; [1]): 1 µg/mL (≈ 0.72 µM) | MIC Streptococcus pneumoniae (ATCC 6301) (Streptococcus sp.; [1]): 0.5 µg/mL (≈ 0.36 µM) | MIC Streptococcus pneumoniae (GC 1894) (Streptococcus sp.; [1]): 0.25 µg/mL (≈ 0.18 µM) | MIC Streptococcus pneumoniae (GC 4565) (Streptococcus sp.; [1]): 0.5 µg/mL (≈ 0.36 µM) | MIC Streptococcus pyogenes (GC 4563) (Streptococcus sp.; [1]): 0.5 µg/mL (≈ 0.36 µM) | MIC Escherichia coli (GC 4560) (Escherichia coli): 4 µg/mL (≈ 2.88 µM) | MIC Staphylococcus aureus (ATCC 29213) (Staphylococcus sp.; strain ATCC 29213): 4 µg/mL (≈ 2.88 µM) | MIC Staphylococcus aureus (GC 1131) (Staphylococcus sp.; strain GC 1131): 8 µg/mL (≈ 5.76 µM) | MIC Staphylococcus aureus (GC 3051) (Staphylococcus sp.; strain GC 3051): 4 µg/mL (≈ 2.88 µM) | MIC Staphylococcus aureus (GC 3053) (Staphylococcus sp.; strain GC 3053): 8 µg/mL (≈ 5.76 µM) | MIC Staphylococcus aureus (GC 4541) (Staphylococcus sp.; strain GC 4541): 4 µg/mL (≈ 2.88 µM) | MIC Staphylococcus aureus (GC 4542) (Staphylococcus sp.; strain GC 4542): 4 µg/mL (≈ 2.88 µM) | MIC Staphylococcus aureus-SMITH (GC 4543) (Staphylococcus sp.; strain GC 4543): 4 µg/mL (≈ 2.88 µM) | MIC Staphylococcus aureus (GC 4544) (Staphylococcus sp.; strain GC 4544): 8 µg/mL (≈ 5.76 µM) | MIC Staphylococcus aureus (GC 4545) (Staphylococcus sp.; strain GC 4545): 4 µg/mL (≈ 2.88 µM) | MIC Coagulase Negative Staphylococcus (GC 4547) (Staphylococcus sp.; strain GC 4547): 4 µg/mL (≈ 2.88 µM) | MIC Coagulase Negative Staphylococcus (GC 4548) (Staphylococcus sp.; strain GC 4548): 4 µg/mL (≈ 2.88 µM) | MIC Coagulase Negative Staphylococcus (GC 4549) (Staphylococcus sp.; strain GC 4549): 2 µg/mL (≈ 1.44 µM) | MIC Coagulase Negative Staphylococcus (GC 4551) (Staphylococcus sp.; strain GC 4551): 4 µg/mL (≈ 2.88 µM)
Structure (SMILES): CC(c1ccccc1)C1NC(=O)CNC(=O)C(CO)NC(=O)C(C(O)C2CNC(=N)N2C2OC(CO)C(O)C(O)C2O)NC(=O)C(C(O)C2CNC(=N)N2)NC(=O)C(Cc2ccc(OC3OC(CO)C(OC4OC5COC6(CCCCC6C)OC5C(O)C4O)C(O)C3O)cc2)NC1=O (stereo not drawn) [Example 204, Cyclo[glycyl-β-methylphenylalanyl-O-[4-O-[4,6-O-(2-methylcyclohexylidene)hexopyranosyl]hexopyranosyl]tyrosyl-3-(2-iminoimidazolidin-4-yl)seryl-3-(3-hexopyranosyl-2-iminoimidazolidin-4-yl)serylseryl]]
MIC Staphylococcus haemolyticus (GC 4546) (Staphylococcus sp.; strain GC 4546): 2 µg/mL (≈ 1.44 µM)
